Assay results from patent publication US20230398130A1, “METHODS AND COMPOSITIONS FOR DIFFERENTIATING STEM CELLS” (Massachusetts Institute of Technology, priority 2020, published 2023).

What was measured:
ISC-enriched organoids [1] = test: Primary screen, 384-well 2.5-D organoid differentiation (ENR+CD, 6 days, Target Selective Inhibitor Library, vs whole-plate median): ATP (CellTiter-Glo 3D, CTG); conditions: for Dose.FC.CTG / Z.CTG: primary screen; for Dose.FC.CTG: ENR+CD 6 days, FC vs plate median; for Z.CTG: standard z score of FC
ISC-enriched organoids [2] = test: Primary screen, 384-well 2.5-D organoid differentiation (ENR+CD, 6 days): basal lysozyme secretion (LYZ.NS); type: cell-based, murine; conditions: for Dose.FC.LYZ.NS / Z.LYZ.NS: primary screen; for Dose.FC.LYZ.NS: ENR+CD 6 days, FC vs plate median; for Z.LYZ.NS: standard z score of FC
Description: (§1) High-throughput screening.

ISC-enriched organoids [3] = test: Primary screen, 384-well 2.5-D organoid differentiation (ENR+CD, 6 days): carbachol-induced lysozyme secretion (LYZ.S); type: cell-based, murine; conditions: for Dose.FC.LYZ.S: primary screen, ENR+CD 6 days, FC vs plate median
Description: as §1

[4] = dose 0.08 uM (1st of 4 lines per treatment; dose not printed in this part)
[5] = dose 0.40 uM (2nd of 4 lines per treatment; dose not printed in this part)
[6] = dose 2.00 uM (3rd of 4 lines per treatment; dose not printed in this part)
[7] = dose 10.00 uM (4th of 4 lines per treatment; dose not printed in this part)

| SMILES | Dose.FC.CTG (ISC-enriched organoids [1]; dose 0.08 uM) [log 2 fold change] | Z.CTG (ISC-enriched organoids [1]; dose 0.08 uM) | Dose.FC.CTG (ISC-enriched organoids [1]; dose 0.40 uM) [log 2 fold change] | Z.CTG (ISC-enriched organoids [1]; dose 0.40 uM) | Dose.FC.CTG (ISC-enriched organoids [1]; dose 2.00 uM) [log 2 fold change] | Z.CTG (ISC-enriched organoids [1]; dose 2.00 uM) | Dose.FC.CTG (ISC-enriched organoids [1]; dose 10.00 uM) [log 2 fold change] | Z.CTG (ISC-enriched organoids [1]; dose 10.00 uM) | Dose.FC.LYZ.NS (ISC-enriched organoids [2]; dose 0.08 uM) [log 2 fold change] | Z.LYZ.NS (ISC-enriched organoids [2]; dose 0.08 uM) | Dose.FC.LYZ.NS (ISC-enriched organoids [2]; dose 0.40 uM) [log 2 fold change] | Z.LYZ.NS (ISC-enriched organoids [2]; dose 0.40 uM) | Dose.FC.LYZ.NS (ISC-enriched organoids [2]; dose 2.00 uM) [log 2 fold change] | Z.LYZ.NS (ISC-enriched organoids [2]; dose 2.00 uM) | Dose.FC.LYZ.NS (ISC-enriched organoids [2]; dose 10.00 uM) [log 2 fold change] | Z.LYZ.NS (ISC-enriched organoids [2]; dose 10.00 uM) | Dose.FC.LYZ.S (ISC-enriched organoids [3]; dose 0.08 uM) [log 2 fold change] | Dose.FC.LYZ.S (ISC-enriched organoids [3]; dose 0.40 uM) [log 2 fold change] | Dose.FC.LYZ.S (ISC-enriched organoids [3]; dose 2.00 uM) [log 2 fold change] | Dose.FC.LYZ.S (ISC-enriched organoids [3]; dose 10.00 uM) [log 2 fold change] | also measured |
| --- | --- | --- | --- | --- | --- | --- | --- | --- | --- | --- | --- | --- | --- | --- | --- | --- | --- | --- | --- | --- | --- |
| COc1cc(N2CCN(C)CC2)ccc1Nc1nccc(-c2cn(C)c3cnccc23)n1 [AZ191] | 0.292 | 0.697 | 0.337 | 0.804 | 0.150 | 0.358 | −0.533 | −1.272 | 0.128 | 1.111 | 0.082 | 0.717 | 0.058 | 0.507 | −0.148 | −1.289 | 0.143 | 0.199 | 0.097 | −0.200 | – |
| COc1cc2c(cc1O)CC[C@@H]1[C@@H]2CC[C@]2(C)[C@@H](O)CC[C@@H]12 [2-Methoxyestradiol (2-MeOE2)] | 0.299 | 0.714 | 0.401 | 0.957 | 0.227 | 0.543 | −0.672 | −1.606 | 0.021 | 0.186 | 0.065 | 0.566 | 0.005 | 0.041 | −0.139 | −1.209 | 0.189 | 0.270 | 0.029 | −0.278 | SSMD.CTG_Rep (strictly standardized mean difference) (ISC-enriched organoids [1]; [4]): 0.407; SSMD.CTG_Rep (strictly standardized mean difference) (ISC-enriched organoids [1]; [5]): 0.930; SSMD.CTG_Rep (strictly standardized mean difference) (ISC-enriched organoids [1]; [6]): 0.461; SSMD.CTG_Rep (strictly standardized mean difference) (ISC-enriched organoids [1]; [7]): −0.878; SSMD.LYZ.NS_Rep (strictly standardized mean difference) (ISC-enriched organoids [2]; [4]): 0.077; SSMD.LYZ.NS_Rep (strictly standardized mean difference) (ISC-enriched organoids [2]; [5]): 0.227; SSMD.LYZ.NS_Rep (strictly standardized mean difference) (ISC-enriched organoids [2]; [6]): 0.049; SSMD.LYZ.NS_Rep (strictly standardized mean difference) (ISC-enriched organoids [2]; [7]): −0.826; SSMD.LYZ.S_Rep (strictly standardized mean difference) (ISC-enriched organoids [3]; [4]): 1.015; Z.LYZ.S (standard z score) (ISC-enriched organoids [3]; [4]): 1.224; SSMD.LYZ.S_Rep (strictly standardized mean difference) (ISC-enriched organoids [3]; [5]): 0.831; Z.LYZ.S (standard z score) (ISC-enriched organoids [3]; [5]): 1.747; SSMD.LYZ.S_Rep (strictly standardized mean difference) (ISC-enriched organoids [3]; [6]): 0.144; Z.LYZ.S (standard z score) (ISC-enriched organoids [3]; [6]): 0.190; SSMD.LYZ.S_Rep (strictly standardized mean difference) (ISC-enriched organoids [3]; [7]): −1.135; Z.LYZ.S (standard z score) (ISC-enriched organoids [3]; [7]): −1.795 |
